From patent US10336712B2, “Compound for enhancing the coupling degree of complex TRPV4-KCa2.3 and anti-hypertension applications thereof” (Jiangnan University, priority 2017, dated 2019)

Tests used:
[1] = target: T1, endothelial cell ion channel complex TRPV4-KCa2.3 (Mus musculus, UniProt P58391+Q9EPK8); assay: FRET AB detection of coupling of TRPV4 and KCa2.3 in mesentery endothelial cells of hypertensive mice; format: cell-based, C57BL/6J mouse; conditions: 10 μM, 96 h, endothelial cells of 8% high-salt, L-NAME and ANG-2 hypertensive mice; FIG. 4
T1 construct: The mesentery endothelial cells of the mice in the high blood pressure model are primarily isolated; endogenous in cells; host or cells: primary mesenteric endothelial cells of hypertensive C57BL/6J mice (high-salt, L-NAME, ANG-2 models)
Protocol: (§1) C57BL/6J Male mice, 8 weeks aged, are selected, and freely fed for one week. Then, the mice are classified into four groups, respectively 8% high-salt group, L-NAME group, ANG-2 group and reference group. The basic blood pressures of the four groups of mice are measured first to determine the base line of the blood pressure of the mice. The conditions of the reference group are not changed, and the blood pressure is measured every day. The high-salt group is fed with 8% high-salt feed, and then the blood pressure is measured every day. The L-name group is fed with 5% L-NAME solution, and then the blood pressure is measured every day. The ANG-2 group is injected with 4% chloral hydrate to perform anesthesia; then, the mice are respectively operated by implanting a pump on the back, wherein each pump is injected with 200 ul of 2.88 mg/ml ANG-2 solution; then, the mice are sutured and allowed to recover; after approximately 3 days, the measurement of the blood pressure begins, and then continues for about 4 weeks. […]
The mesentery endothelial cells of the mice in the high blood pressure model are primarily isolated and incubated in a constant-temperature cell incubator. […] Then, the coupling of the two proteins before and after the mutation is detected using the laser scanning confocal microscope in the FRET AB mode.

[2] = tested on: three high blood pressure types of mice models; assay: Blood pressure in three high blood pressure types of mice models; format: in vivo, C57BL/6J mouse; conditions: 1 mg/kg injected via the caudal veins; 8% high-salt, L-NAME and ANG-2 models; FIG. 5
Protocol: as §1
Experimental method: three high blood pressure types of mice models are constructed according to the method in Embodiment 4. After modeling succeeds, JNc-440 (1 mg/kg) is injected via the caudal veins, and then the blood pressure of the mice is measured and observed.

[3] = target: T2, protein KCa2.3 (structural domain 17C) (Mus musculus, UniProt P58391); assay: Streptavidin magnetic bead pull-down of biotinylated JNc-440 from endothelial cell protein, Western blot detection; format: binding, C57BL/6 J mouse; conditions: FIG. 3
T2 construct: RIPA Lysis is carried out to obtain cellular protein; endogenous in cells; host or cells: primary mesenteric endothelial cells of C57BL/6J mouse
Protocol: (§2) The endothelial cells of C57BL/6 J mouse mesentery are primarily isolated, and then incubated in a constant-temperature cell incubator. Biotinylated JNc-440 (10 μM/L) is added or oligopeptide and biotinylated JNc-440 (10 μM/L) are added into the incubator to jointly incubated with the cells for 96 h. RIPA Lysis is carried out to obtain cellular protein. The protein supernatant is added with 10 μL streptavidin magnetic beads, and the mixture is incubated at a temperature of 4° C. for a whole night. Suspension generated after the incubation is absorbed using a magnetic stand to obtain an avidin magnetic bead-biotinylated JNc-440-protein complex. The complex is suspended with 50 μL of 1× Loading buffer, and boiled for 5 min in a boiling bath. Samples are separated through SDS-PAGE. Proteins are transferred onto a PVDF membrane. The PVDF membrane with the proteins are confined in 5% BSA for 4 h at room temperature, then incubated with a primary antibody at a temperature of 4° C. for a whole night, and next incubated with a secondary antibody for 2 h at room temperature. ECL color developing agent is added. A protein imaging system is used to detect and analyze the obtained product.

[4] = target: T3, protein TRPV4 (structural domain AR2) (Mus musculus, UniProt Q9EPK8); assay: as above; format: binding, C57BL/6 J mouse; conditions: FIG. 3
T3 construct: RIPA Lysis is carried out to obtain cellular protein; endogenous in cells; host or cells: primary mesenteric endothelial cells of C57BL/6J mouse
T3 sequence (Q9EPK8 whole entry, the tested form may be a part): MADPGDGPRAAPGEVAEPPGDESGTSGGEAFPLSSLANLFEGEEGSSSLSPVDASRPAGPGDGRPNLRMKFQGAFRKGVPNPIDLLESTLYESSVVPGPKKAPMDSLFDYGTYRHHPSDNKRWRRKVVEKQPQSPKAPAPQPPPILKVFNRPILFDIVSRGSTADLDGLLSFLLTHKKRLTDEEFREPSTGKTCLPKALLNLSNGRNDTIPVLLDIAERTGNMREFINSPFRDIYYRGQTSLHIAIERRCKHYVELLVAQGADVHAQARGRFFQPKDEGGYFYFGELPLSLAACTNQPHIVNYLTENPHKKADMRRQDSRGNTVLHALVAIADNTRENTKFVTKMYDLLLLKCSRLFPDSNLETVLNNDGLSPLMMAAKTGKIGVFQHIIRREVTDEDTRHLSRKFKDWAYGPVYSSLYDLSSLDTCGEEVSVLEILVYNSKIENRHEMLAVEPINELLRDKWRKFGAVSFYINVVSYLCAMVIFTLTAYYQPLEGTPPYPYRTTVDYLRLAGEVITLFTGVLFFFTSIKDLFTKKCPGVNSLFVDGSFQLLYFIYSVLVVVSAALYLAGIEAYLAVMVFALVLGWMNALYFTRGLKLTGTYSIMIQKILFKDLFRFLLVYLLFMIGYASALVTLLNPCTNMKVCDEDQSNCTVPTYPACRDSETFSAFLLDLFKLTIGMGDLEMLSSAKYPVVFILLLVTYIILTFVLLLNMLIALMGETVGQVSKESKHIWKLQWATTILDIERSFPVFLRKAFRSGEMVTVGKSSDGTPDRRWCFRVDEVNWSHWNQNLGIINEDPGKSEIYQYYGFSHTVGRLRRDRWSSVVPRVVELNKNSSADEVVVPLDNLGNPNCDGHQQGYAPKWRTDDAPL
Protocol: as §2

[5] = 10 μM/L, incubated 96 h with primary mouse mesentery endothelial cells

| SMILES | space coupling degree of the proteins TRPV4 and KCa2.3 (FRET) [1] | blood pressure of the mice [2] | capability of binding with the protein KCa2.3 after the oligopeptide 17C is added ([3]; 10 μM/L plus oligopeptide 17C, 96 h, compared with the reference control) | binding with the protein KCa2.3 [3, 5] | capability of binding with the protein TRPV4 after the oligopeptide AR2 is added ([4]; 10 μM/L plus oligopeptide AR2, 96 h) | binding with the protein TRPV4 [4, 5] |
| --- | --- | --- | --- | --- | --- | --- |
| O=C(NCCCNC(=O)C(c1ccccc1)c1ccccc1)c1nc(=O)c2ccccc2[nH]1 [JNc-440] | increased obviously | drops obviously |  |  |  |  |
| O=C1NC2CSC(CCCCC(=O)OCCCCCNc3nc(C(=O)NCCCNC(=O)C(c4ccccc4)c4ccccc4)nc4ccccc34)C2N1 (stereo not drawn) [biotinylated JNc-440] |  |  | obviously reduced | can be bound | obviously reduced | can be bound |
